In brackets after ≈: the same amount, converted by molar mass. Values belong to the compound of their own block, whether it stands above or below them.
Assays:
Assay in all cases: ≥ marks a high value that may be exact or a test limit, other limits are often not marked, values filed in µg/mL are converted to µM
[1] = tested on: Staphylococcus aureus ATCC BAA-1556
[2] = tested on: Salmonella enterica subsp. enterica serovar Typhimurium ATCC 14028
[3] = tested on: Bacillus subtilis CMCC 63501
[4] = tested on: Escherichia coli ATCC 25922
Escherichia coli UB1005 = tested on: Escherichia coli UB1005
[5] = tested on: Staphylococcus aureus ATCC 29213
[6] = tested on: Salmonella typhimurium ATCC 7731
[7] = tested on: Staphylococcus epidermidis ATCC 12228
[8] = tested on: Pseudomonas aeruginosa ATCC 27853
[9] = tested on: Enterococcus faecalis ATCC 29212
[10] = tested on: Salmonella enterica subsp. enterica serovar Pullorum C79-13
[11] = tested on: Salmonella enterica subsp. enterica serovar Typhimurium C77-31
[12] = tested on: Escherichia coli NCTC 10418
[13] = tested on: Candida albicans NCYC 1467
[14] = tested on: Staphylococcus aureus NCTC 10788
Proteus mirabilis = tested on: Proteus mirabilis
Candida albicans = tested on: Candida albicans
Saccharomyces cerevisiae = tested on: Saccharomyces cerevisiae
Shigella dysenteriae = tested on: Shigella dysenteriae
Escherichia coli = tested on: Escherichia coli
Serratia marcescens = tested on: Serratia marcescens
[15] = tested on: Staphylococcus epidermidis
Bacillus subtilis = tested on: Bacillus subtilis
Micrococcus luteus = tested on: Micrococcus luteus
Salmonella typhimurium = tested on: Salmonella typhimurium
Pseudomonas aeruginosa = tested on: Pseudomonas aeruginosa
[16] = tested on: Pseudomonas aeruginosa ATCC 15442
[17] = tested on: Candida albicans ATCC 10231
Pasteurella multocida = tested on: Pasteurella multocida
Listeria innocua = tested on: Listeria innocua
Leuconostoc lactis = tested on: Leuconostoc lactis
Staphylococcus aureus = tested on: Staphylococcus aureus
Bacillus cereus = tested on: Bacillus cereus
Streptococcus uberis = tested on: Streptococcus uberis

- MIC [1]: 25 µM (≈ 33.1 µg/mL)
SMILES: CC[C@H](C)[C@H](NC(=O)[C@H](Cc1c[nH]c2ccccc12)NC(=O)[C@H](CCCN=C(N)N)NC(=O)[C@H](CCCN=C(N)N)NC(=O)[C@H](CC(C)C)NC(=O)[C@@H](N)CCCCN)C(=O)N[C@@H](CCCN=C(N)N)C(=O)N[C@@H](Cc1c[nH]c2ccccc12)C(=O)N[C@@H](CC(C)C)C(N)=O [KLRRWIRWL]

- MIC [1]: 12.5 µM (≈ 14.3 µg/mL)
SMILES: CC(C)C[C@H](NC(=O)[C@H](Cc1c[nH]c2ccccc12)NC(=O)[C@H](Cc1c[nH]c2ccccc12)NC(=O)[C@H](CC(C)C)NC(=O)[C@H](Cc1c[nH]c2ccccc12)NC(=O)[C@@H](N)Cc1c[nH]c2ccccc12)C(=O)N[C@@H](CCCN=C(N)N)C(N)=O [WWLWWLR]

- MIC [2]: > 128 µM
- MIC [3]: ≥ 128 µM
- MIC [4]: > 128 µM
- MIC (Escherichia coli UB1005): ≥ 128 µM
- MIC [5]: > 128 µM
- MIC [6]: ≥ 128 µM
- MIC [7]: > 128 µM
- MIC [8]: > 128 µM
SMILES: CC[C@H](C)[C@H](NC(=O)CNC(=O)[C@H](C)NC(=O)[C@H](C)NC(=O)[C@@H](NC(=O)[C@@H](NC(=O)[C@H](CC(N)=O)NC(=O)[C@@H](NC(=O)[C@H](C)NC(=O)[C@@H](NC(=O)[C@@H]1CCCN1C(=O)[C@@H](NC(=O)[C@H](CC(C)C)NC(=O)[C@@H]1CCCN1C(=O)[C@H](Cc1c[nH]c2ccccc12)NC(=O)[C@H](Cc1ccccc1)NC(=O)[C@H](CCCN=C(N)N)NC(=O)[C@@H](N)CCCCN)C(C)C)C(C)C)[C@@H](C)CC)[C@@H](C)O)C(C)C)C(=O)N[C@@H](CC(N)=O)C(N)=O [KRFWPLVPVAINTVAAGIN]

- MIC [1]: ≥ 100 µM
SMILES: CC(C)C[C@H](NC(=O)[C@H](CC(C)C)NC(=O)[C@H](CC(C)C)NC(=O)[C@H](CC(C)C)NC(=O)[C@H](CC(C)C)NC(=O)[C@H](CCCCN)NC(=O)[C@H](CC(C)C)NC(=O)[C@@H](N)CC(C)C)C(=O)N[C@@H](CCCCN)C(N)=O [LLKLLLLLK]

- MIC [9]: 64 µM (≈ 133 µg/mL)
- MIC [4]: 2 µM (≈ 4.15 µg/mL)
- MIC [10]: 8 µM (≈ 16.6 µg/mL)
- MIC [5]: 32 µM (≈ 66.4 µg/mL)
- MIC [7]: 32 µM (≈ 66.4 µg/mL)
- MIC [11]: ≥ 32 µM
SMILES: NCCCC[C@H](NC(=O)CNC(=O)[C@H](CC(N)=O)NC(=O)[C@H](CCC(=O)O)NC(=O)[C@H](Cc1c[nH]c2ccccc12)NC(=O)[C@H](CCCCN)NC(=O)[C@H](Cc1c[nH]c2ccccc12)NC(=O)[C@H](CCCCN)NC(=O)[C@@H](N)Cc1c[nH]c2ccccc12)C(=O)N[C@@H](Cc1c[nH]c2ccccc12)C(=O)N[C@@H](CCCCN)C(=O)N[C@@H](Cc1c[nH]c2ccccc12)C(=O)N[C@@H](CCCCN)C(=O)N[C@@H](Cc1c[nH]c2ccccc12)C(=O)O [WKWKWENGKWKWKW]

- MIC [12]: ≥ 63.8 µM
- MIC [13]: 3.99 µM (≈ 8 µg/mL)
- MIC [14]: 3.99 µM (≈ 8 µg/mL)
SMILES: CC[C@H](C)[C@H](NC(=O)CNC(=O)CNC(=O)[C@H](C)NC(=O)[C@@H](NC(=O)[C@H](CCCCN)NC(=O)[C@@H]1CCCN1C(=O)[C@@H](NC(=O)[C@H](CCSC)NC(=O)[C@H](CO)NC(=O)[C@H](Cc1ccccc1)NC(=O)[C@@H](N)Cc1ccccc1)[C@@H](C)CC)[C@@H](C)CC)C(=O)N[C@@H](C)C(=O)N[C@@H](CO)C(=O)N[C@@H](CC(C)C)C(=O)N[C@H](C(=O)N[C@@H](CCCCN)C(=O)N[C@@H](CC(N)=O)C(=O)N[C@@H](CC(C)C)C(N)=O)C(C)C [FFSMIPKIAGGIASLVKNL]

- MIC [1]: ≥ 100 µM
SMILES: CC(C)C[C@H](NC(=O)[C@H](CC(C)C)NC(=O)[C@H](CC(C)C)NC(=O)[C@H](CC(C)C)NC(=O)[C@H](CC(C)C)NC(=O)[C@H](CC(C)C)NC(=O)[C@H](CCCCN)NC(=O)[C@H](CC(C)C)NC(=O)[C@@H](N)CC(C)C)C(N)=O [LLKLLLLLL]

- MIC (Proteus mirabilis): 18.4 µM (≈ 50 µg/mL)
- MIC (Candida albicans): > 36.8 µM
- MIC (Saccharomyces cerevisiae): 9.21 µM (≈ 25 µg/mL)
- MIC (Shigella dysenteriae): 9.21 µM (≈ 25 µg/mL)
- MIC (Escherichia coli): 9.21 µM (≈ 25 µg/mL)
- MIC (Serratia marcescens): ≥ 36.8 µM
- MIC [15]: 18.4 µM (≈ 50 µg/mL)
- MIC (Bacillus subtilis): 18.4 µM (≈ 50 µg/mL)
- MIC (Micrococcus luteus): 0.921 µM (≈ 2.5 µg/mL)
- MIC (Salmonella typhimurium): 27.6 µM (≈ 75 µg/mL)
- MIC (Pseudomonas aeruginosa): 9.21 µM (≈ 25 µg/mL)
SMILES: CC[C@H](C)[C@H](NC(=O)CN)C(=O)N[C@@H](CC(C)C)C(=O)N[C@@H](CC(=O)O)C(=O)N[C@H](C(=O)N[C@@H](CC(C)C)C(=O)N[C@@H](CCCCN)C(=O)N[C@@H](CCC(N)=O)C(=O)N[C@@H](Cc1ccccc1)C(=O)N[C@@H](C)C(=O)N[C@@H](CCCCN)C(=O)NCC(=O)N[C@H](C(=O)NCC(=O)N[C@@H](CCCCN)C(=O)N[C@@H](CC(=O)O)C(=O)N[C@@H](CC(C)C)C(=O)N[C@H](C(=O)N[C@@H](CCCCN)C(=O)NCC(=O)N[C@@H](C)C(=O)N[C@@H](C)C(=O)N[C@@H](CCC(N)=O)C(=O)NCC(=O)N[C@H](C(=O)N[C@@H](CC(C)C)C(=O)N[C@@H](CO)C(=O)O)C(C)C)C(C)C)C(C)C)[C@@H](C)O [GILDTLKQFAKGVGKDLVKGAAQGVLS]

- MIC [16]: ≥ 78.9 µM
- MIC [17]: 78.9 µM (≈ 128 µg/mL)
- MIC [5]: 0.154 µM (≈ 0.25 µg/mL)
SMILES: CC[C@H](C)[C@H](NC(=O)[C@H](C)NC(=O)[C@@H](N)C(C)C)C(=O)N[C@@H](C)C(=O)N[C@@H](CC(C)C)C(=O)N[C@@H](CCCCN)C(=O)N[C@@H](C)C(=O)N[C@@H](C)C(=O)N[C@@H](Cc1cnc[nH]1)C(=O)N[C@@H](Cc1ccc(O)cc1)C(=O)N[C@@H](Cc1cnc[nH]1)C(=O)N[C@H](C(=O)N[C@@H](C)C(=O)N[C@@H](CCCCN)C(=O)N[C@@H](CCC(=O)O)C(=O)O)[C@@H](C)O [VAIALKAAHYHTAKE]

- MIC (Pasteurella multocida): 9.57 µM (≈ 25 µg/mL)
- MIC (Listeria innocua): 19.1 µM (≈ 50 µg/mL)
- MIC (Leuconostoc lactis): 1.15 µM (≈ 3 µg/mL)
- MIC (Staphylococcus aureus): 9.57 µM (≈ 25 µg/mL)
- MIC (Bacillus cereus): 19.1 µM (≈ 50 µg/mL)
- MIC (Escherichia coli): > 38.3 µM
- MIC (Streptococcus uberis): 19.1 µM (≈ 50 µg/mL)
- MIC [15]: 9.57 µM (≈ 25 µg/mL)
- MIC (Micrococcus luteus): 4.59 µM (≈ 12 µg/mL)
SMILES: CC[C@H](C)[C@H](NC(=O)[C@@H](NC(=O)[C@@H]1CCCN1C(=O)[C@@H](NC(=O)[C@@H](NC(=O)[C@H](Cc1cnc[nH]1)NC(=O)[C@@H]1CCCN1C(=O)[C@@H](NC(=O)[C@@H](NC(=O)[C@H](Cc1cnc[nH]1)NC(=O)[C@H](CCCCN)NC(=O)[C@@H](NC(=O)[C@@H](NC(=O)[C@H](CO)NC(=O)CNC(=O)[C@H](CC(C)C)NC(=O)[C@@H](NC(=O)[C@H](CO)NC(=O)[C@H](CC(C)C)NC(=O)[C@H](CC(C)C)NC(=O)CN)C(C)C)C(C)C)C(C)C)C(C)C)[C@@H](C)CC)C(C)C)C(C)C)C(C)C)C(=O)N[C@@H](C)C(=O)N[C@@H](CCC(=O)O)C(=O)N[C@@H](Cc1cnc[nH]1)C(=O)N[C@@H](CC(C)C)C(N)=O [GLLSVLGSVVKHVIPHVVPVIAEHL]

- MIC [1]: ≥ 100 µM
SMILES: CC[C@H](C)[C@H](NC(=O)[C@H](Cc1c[nH]c2ccccc12)NC(=O)[C@H](CCCN=C(N)N)NC(=O)[C@H](CCCN=C(N)N)NC(=O)[C@H](Cc1c[nH]c2ccccc12)NC(=O)[C@@H](N)CCCCN)C(=O)N[C@@H](CCCN=C(N)N)C(N)=O [KWRRWIR]

Reference: DBAASP
